# Test results as given in PubChem BioAssay (NCI).
#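 In this assay, cells in 96-well plates receive the compound at five concentrations for 48 hours. Endpoints are linearly interpolated between the surrounding concentrations. TGI: total growth inhibition.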
# Key:
# Assay in all cases: DTP human tumour cell line panel, 48 h
# COLO 205 colon = test system: COLO 205 colon
# NCI-H23 lung = test system: NCI-H23 lung
# NCI-H460 lung = test system: NCI-H460 lung
# SF-268 CNS = test system: SF-268 CNS
Compound,TGI (COLO 205 colon) [µM],TGI (NCI-H23 lung) [µM],TGI (NCI-H460 lung) [µM],TGI (SF-268 CNS) [µM]
CO[C@H]1[C@@H](O)[C@@H](C)O[C@@H](O[C@H]2CC[C@@]3(C)[C@H](CC[C@@H]4[C@@H]3CC[C@]3(C)[C@@H](C5=CC(=O)OC5)[C@@H](OC(C)=O)C[C@]43O)C2)[C@@H]1O,0.447,0.139,0.0617,0.0855
CCN(CC)/C(Cl)=C(Cl)\C(=C1\Nc2ccc(OC)cc21)[N+](=O)[O-],> 100,> 100,> 100,> 100
Cc1cc(C)cc(C(=N)c2ccccc2Cc2cccc3ccccc23)c1,52.3,34.1,29.5,34.9
CCN(CC)c1ccc2cc(-c3nnc(-c4ccccc4)o3)c(=O)oc2c1,> 100,> 100,> 51.3,> 100
COc1ccc(CCNC2=CC(=O)c3ncccc3C2=O)cc1OC,3.23,2.58,1.75,34.9
CCOC(=O)C1(C(=O)OCC)CN(CC)CN(c2ccccc2)C1,34.8,39,> 100,> 100
CC(=O)c1sc2c(c1OC(=O)c1cccs1)c(=O)n(-c1ccccc1)c(=S)n2-c1ccccc1,32.5,40.9,25.3,51.5
COc1ccc2c(c1)CCc1c-2[nH]c2ccc(OC)cc12,> 100,> 100,> 100,> 100
Cc1cccc(/C=N/NC(=S)NCCc2ccccn2)n1,> 100,> 100,> 100,> 100
CC(C)CC1[C@@H](OCc2ccccc2)COS(=O)N1Cc1ccccc1 (stereo partly specified),> 100,> 100,–,> 100
CCOC(=O)CC1c2ccc(O)cc2OC(=O)C1c1ccc([N+](=O)[O-])cc1 (stereo unspecified),33,96.7,> 100,> 100
CN(Nc1cc(=O)[nH]c(=O)[nH]1)c1ccccc1,> 100,> 100,> 100,> 100
CC(=O)c1csc2c1C(=O)c1scc(C(C)=O)c1C2=O,3.63,2.92,2.35,3.44
CC1(C)OCC2OC3(c4nc(C#N)c(N)o4)OC(C)(C)OC3C2O1 (stereo unspecified),> 100,> 100,> 100,> 100
COc1ccc(C[N+]23C(CC[C@H]2c2ccccc2)CC[C@H]3c2ccccc2)cc1 (stereo partly specified),21.4,–,–,> 100
N#Cc1sc2nc(/C=C3/C=CC=CC3=O)c(O)n2c1N,> 100,> 100,–,> 100
O=C(O)c1ccc(NNc2cc(=O)[nH]c(=O)[nH]2)cc1,> 100,> 100,> 100,> 100
CC1=C(Br)C(Br)=C(C)S1=O,5.82,> 100,34.7,> 100
C[C@H]1[C@H](C)CC[C@]2(C)CC[C@]3(C)C(=C[C@@H](O)[C@@H]4[C@@]5(C)[C@H](O)[C@@H](O)[C@H](O)C(C)(C)[C@@H]5CC[C@]43C)[C@H]12,> 100,> 100,> 100,> 100
CC(=O)OC1CC2c3cccc4c3C(CC2N(C)C1=O)CN4C(=O)c1ccccc1 (stereo unspecified),56.1,55.4,–,> 100
CN1CCOC1(C)CO (stereo unspecified),> 100,> 100,> 100,> 100
COc1cccc(CCn2c(N)c(-c3ccccc3)c3ccc([N+](=O)[O-])cc3c2=O)c1,5.93,8.47,30,53.7
C=CCN1C[C@H](C)N([C@H](c2ccc(C(=O)N(CC)CCO)cc2)c2cccc(OC)c2)C[C@H]1C,> 100,> 100,–,> 100
O=C(NCCCNC(=O)c1ccc2c(O)c(O)ccc2c1)c1ccc2c(O)c(O)ccc2c1,50.6,52.8,–,58.1
COc1ccc2c(c1)CC[C@@H]1[C@@H]2CC[C@]2(C)C(=O)/C(=C/c3ccc(OC)c(OC)c3)C[C@@H]12,–,> 100,> 100,–
